According to patent publication US5294716A, “Chemical process for making angiotesin II antagonist compounds” (Imperial Chemical Industries PLC, priority 1991, dated 1994):
Where a name gives a salt, the structure may show the parent alone. Read-outs that look alike come from different tables or passages of the source.

Assays:
[1] = molecular target: T1, AII receptors (guinea pig adrenal gland cell surface membranes) (Cavia porcellus, UniProt Q9WV26); experiment: Test A: displacement of radiolabelled AII binding to cell surface membrane fraction (guinea pig adrenal gland)
T1 construct: from tissue; host or cells: guinea pig adrenal gland, cell surface membrane fraction
T1 sequence (Q9WV26 1-359): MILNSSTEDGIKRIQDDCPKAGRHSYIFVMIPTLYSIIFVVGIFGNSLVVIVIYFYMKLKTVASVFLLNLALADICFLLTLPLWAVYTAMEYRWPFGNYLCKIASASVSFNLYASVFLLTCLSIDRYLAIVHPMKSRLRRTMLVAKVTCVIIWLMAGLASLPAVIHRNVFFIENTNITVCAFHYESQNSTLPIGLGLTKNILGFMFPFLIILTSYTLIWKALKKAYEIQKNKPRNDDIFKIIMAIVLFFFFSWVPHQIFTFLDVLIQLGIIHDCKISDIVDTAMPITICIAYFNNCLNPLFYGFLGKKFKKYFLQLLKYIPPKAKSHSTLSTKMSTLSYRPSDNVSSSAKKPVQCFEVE
Description: The antagonism of one or more of the physiological actions of AII and, in particular, the antagonism of the interaction of AII with the receptors which mediate its effects on a target tissue, may be assessed using one or more of the following, routine laboratory procedures: Test A: This in vitro procedure involves the incubation of the test compound initially at a concentration of 100 micromolar (or less) in a buffered mixture containing fixed concentrations of radiolabelled AII and a cell surface membrane fraction prepared from a suitable angiotensin target tissue. In this test, the source of cell surface membranes is the guinea pig adrenal gland which is well known to respond to AII. Interaction of the radiolabelled AII with its receptors (assessed as radiolabel bound to the particulate membrane fraction following removal of unbound radiolabel by a rapid filtration procedure such as is standard in such studies) is antagonized by compounds which also bind to the membrane receptor sites and the degree of antagonism (observed in the test as displacement of membrane-bound radioactivity) is determined readily by comparing the receptor-bound radioactivity in the presence of the test compound at the specified test concentration with a control value determined in the absence of the test compound. […]

[2] = system: angiotensin II-induced pressor responses; experiment: Test C: in vivo antagonism of angiotensin II-induced pressor responses in terminally-anaesthetised or conscious rats; conditions: Rattus norvegicus, iv, i.v. administration
Source text: The antagonism of one or more of the physiological actions of AII and, in particular, the antagonism of the interaction of AII with the receptors which mediate its effects on a target tissue, may be assessed using one or more of the following, routine laboratory procedures: Test C: This in vivo test involves using terminally-anaesthetised or conscious rats in which an arterial catheter has been implanted under anaesthesia for the measurement of changes in blood pressure. The AII antagonistic effects of the test compound following oral or parenteral administration, are assessed against angiotensin II-induced pressor responses. To ensure that the effect is specific, the effect of the test compound on vasopressin-induced pressor responses may also be determined in the same preparation.

IC50 ([1]; average, read-out: IC50 (concentration for 50% displacement of radiolabelled AII binding), average)	IC50 ([1]; read-out: IC50 (concentration for 50% displacement of radiolabelled AII binding))	Compound	ED50 [2]
17 nM	–	Cc1cc(OCc2ccc(-c3ccccc3-c3nnn[nH]3)cc2)c2ccccc2n1.Cl [2-methyl-4-[(2'-(1H-tetrazol-5-yl)biphenyl-4-yl)methoxy]quinoline hydrochloride]	0.5 mg/kg
–	30 nM	Cc1cc(OCc2ccc(-c3ccccc3-c3nn[nH]n3)cc2)c2c(n1)CCCC2 [2-methyl-5,6,7,8-tetrahydro-4-[(2'-(1H-tetrazol-5-yl)methoxy]quinoline hydrochloride]	0.28 mg/kg
